Read-outs that look alike come from different tables or passages of the source.
Legend:
[1] = molecular target: T1, estrogen-related receptor alpha (ERRα) (Homo sapiens, UniProt P11474)
T1 sequence (P11474 1-423): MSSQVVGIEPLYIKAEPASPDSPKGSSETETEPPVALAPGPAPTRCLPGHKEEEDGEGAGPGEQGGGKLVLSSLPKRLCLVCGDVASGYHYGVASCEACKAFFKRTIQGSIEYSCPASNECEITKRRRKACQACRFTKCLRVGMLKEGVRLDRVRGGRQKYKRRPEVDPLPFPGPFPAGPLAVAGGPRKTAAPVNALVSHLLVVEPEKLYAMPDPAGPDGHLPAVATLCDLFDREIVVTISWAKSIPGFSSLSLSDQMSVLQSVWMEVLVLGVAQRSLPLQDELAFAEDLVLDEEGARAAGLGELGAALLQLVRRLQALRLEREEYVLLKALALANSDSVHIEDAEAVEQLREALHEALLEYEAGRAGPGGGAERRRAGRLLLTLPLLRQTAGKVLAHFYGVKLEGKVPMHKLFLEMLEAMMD
Method: (§3) The ERR reporter HEK293 cells were cultured in high glucose DMEM medium (ThermoFisher Scientific, Inc., Waltham, MA, USA) supplemented with 10% fetal bovine serum (FBS; ThermoFisher Scientific, Inc.), 4 mM of L-glutamine (ThermoFisher Scientific, Inc.), 1 mM of sodium pyruvate (ThermoFisher Scientific, Inc.), 100 U/mL of penicillin and 100 mg/mL of streptomycin (ThermoFisher Scientific, Inc.). PGC/ERR reporter HEK293 cells were cultured in the same medium as the ERR reporter HEK293 cells with an additional 1 μg/mL puromycin (ThermoFisher Scientific, Inc.) as the selection marker for PGC-1α expression.
(§4) The DMSO-only compound plates at the beginning and end of the compound plate stack were used to correct the data set by applying an in-house pattern correction algorithm [90]. The half maximum inhibition values (IC50) for each compound and maximum response (efficacy) values were obtained by fitting the concentration-response curves of each compound to a four-parameter Hill equation [91]. […] For each reading, the activity outcome of a test compound was first categorized by the average curve rank from the triplicate runs and the reproducibility calls. The final activity outcome of each compound was based on the ERR antagonist readout activity and cell viability counter screen.

[2] = system: IDH3α; assay: qRT-PCR mRNA expression of ERR downstream gene IDH3α; assay type: cell-based; conditions: ERR reporter cells, vs GAPDH, DMSO = 0%
Method: (§1) Total RNA was isolated from treated ERR reporter cells using an RNeasy Mini Kit (Qiagen, Germantown, MD, USA), homogenized using a QIAshredder (Qiagen), and reverse transcribed with a High-Capacity RNA-to-cDNA™ Kit (ThermoFisher Scientific, Inc.) following the manufacturers’ instructions. Expression of ERRα, COX8α, IDH3α, PPARα, COX4I1, and cytochrome c genes was normalized against GAPDH. All primers were purchased from ThermoFisher Scientific, Inc. Real-time PCR assays were performed in 384-well plates on a QuantStudio 5 (Applied Biosystems, Foster City, CA, USA) with TaqMan™ Gene Expression Master Mix (ThermoFisher Scientific, Inc.). Induction values were calculated using the equation: Fold = 2^ΔΔCt, where ΔCt represents the differences in cycle threshold numbers between each of the target genes and GAPDH, and ΔΔCt represents the relative change in these differences between control and treatment groups. Experimental data are presented as a mean of triplicate determinations ± SD. Statistical comparisons were made by t-test, while the statistical significance was set at p values of <0.05 (light blue), <0.01 (medium blue), and <0.001 (dark blue).

[3] = molecular target: T2, ERRα with PGC-1α (PGC/ERR pathway) (Homo sapiens, UniProt P11474); assay: PGC/ERR reporter (luciferase) qHTS assay, PGC/ERR-HEK293; conditions: for EC50: mean ± SD, triplicate; for activity in the ERR/PGC assay: in words
T2 sequence (P11474 1-423): T1 sequence (P11474 1-423)
Method: as §3, §4

[4] = molecular target: T2, ERRα with PGC-1α (PGC/ERR pathway)
Method: as §3, §4

[5] = system: PGC/ERR reporter HEK293 cells; assay: CellTiter-Fluor cell viability assay multiplexed with PGC/ERR reporter assay; assay type: cell-based; conditions: for EC50: Homo sapiens; for PGC/ERR-HEK293 Follow-Up Viability EC50: follow-up screen; for PGC/ERR-HEK293 Primary Viability EC50: primary qHTS
Method: (§2) ERR or PGC/ERR reporter HEK293 cells suspended in culture medium without puromycin were dispensed at 2500 cells/5 μL/well in tissue culture–treated 1536-well white assay plates (Greiner Bio-One North America, Monroe, NC, USA) using a Thermo Scientific Multidrop Combi (ThermoFisher Scientific, Inc.). […] After the cells were incubated at 37 °C with 5% CO2 for 6 h, 23 nL of compounds or control, XTC790, was transferred into the assay plates using a Wako Pintool station (Wako Automation, San Diego, CA, USA). The assay plates were incubated at 37 °C for 18 h, followed by the addition of 5 μL ONE-Glo luciferase reagent (Promega, Madison, WI, USA) using a Flying Reagent Dispenser (Aurora Discovery, Carlsbad, CA, USA). After 30 min of incubation at room temperature, the luminescence intensity of the assay plates was quantified using a ViewLux plate reader (PerkinElmer, Shelton, CT, USA). The assays were performed three times for each compound concentration. These ERR and PGC/ERR reporter assays were multiplexed with the CellTiter-Fluor Cell Viability Assay (Promega), a fluorescence-based cell viability assay, to assess compound cytotoxicity.
The qHTS data were analyzed as described previously. Each titration point was normalized relative to the positive control compound (XCT790 = −100%) and DMSO-only wells (0%) according to the following equation: % Activity = [(Vcompound − VDMSO)/(VDMSO − Vpos)] × 100, where Vcompound denotes the compound well values, Vpos denotes the median value of the positive control wells, and VDMSO denotes the median values of the DMSO-only wells. The DMSO-only compound plates at the beginning and end of the compound plate stack were used to correct the data set by applying an in-house pattern correction algorithm. The half maximum inhibition values (IC50) for each compound and maximum response (efficacy) values were obtained by fitting the concentration-response curves of each compound to a four-parameter Hill equation [91]. Compounds were designated as Class 1–4 according to the type of concentration–response curve observed. For each reading, the activity outcome of a test compound was first categorized by the average curve rank from the triplicate runs and the reproducibility calls. The final activity outcome of each compound was based on the ERR antagonist readout activity and cell viability counter screen.

[6] = molecular target: T1, estrogen-related receptor alpha (ERRα); assay: ERR reporter (luciferase) antagonist qHTS assay, ERR-HEK293; conditions: for EC50: mean ± SD, triplicate; for activity in the ERR assay: in words
Method: as §3, §4

[7] = system: ERR reporter HEK293 cells; assay: CellTiter-Fluor cell viability assay multiplexed with ERR reporter assay; assay type: cell-based; conditions: for EC50: Homo sapiens, HEK293
Method: as §2
The qHTS data were analyzed as described previously. […] The DMSO-only compound plates at the beginning and end of the compound plate stack were used to correct the data set by applying an in-house pattern correction algorithm. The half maximum inhibition values (IC50) for each compound and maximum response (efficacy) values were obtained by fitting the concentration-response curves of each compound to a four-parameter Hill equation [91]. […] For each reading, the activity outcome of a test compound was first categorized by the average curve rank from the triplicate runs and the reproducibility calls. The final activity outcome of each compound was based on the ERR antagonist readout activity and cell viability counter screen.

[8] = system: cytochrome c; assay: qRT-PCR mRNA expression of ERR downstream gene cytochrome c; assay type: cell-based; conditions: ERR reporter cells, vs GAPDH, DMSO = 0%
Method: as §1

[9] = system: COX8α; assay: qRT-PCR mRNA expression of ERR downstream gene COX8α; assay type: cell-based; conditions: ERR reporter cells, vs GAPDH, DMSO = 0%
Method: as §1

[10] = PGC/ERR-HEK293 Follow-Up EC50, follow-up screen
[11] = PGC/ERR-HEK293 Primary EC50, primary qHTS, 18 h
[12] = HEK293, primary qHTS, read-out: PGC/ERR-HEK293 Primary Viability EC50 (converted)
[13] = ERR-HEK293 Follow-Up EC50, follow-up (confirmation) screen
[14] = ERR-HEK293 Primary EC50, primary qHTS, 18 h, 15 concentrations
[15] = primary qHTS, viability counter screen, read-out: ERR-HEK293 Primary Viability EC50 (converted)
[16] = primary qHTS, viability counter screen
[17] = follow-up screen, viability, read-out: ERR-HEK293 Follow-Up Viability EC50 (converted)

Structure (SMILES)	ERR-HEK293 Follow-Up Efficacy [1]	ERR-HEK293 Primary Efficacy [1]	EC50 [3, 10]	EC50 [3, 11]	PGC/ERR-HEK293 Follow-Up Efficacy [4]	PGC/ERR-HEK293 Primary Efficacy [4]	EC50 [5, 12]	PGC/ERR-HEK293 Follow-Up Viability EC50 [5]	EC50 [6, 13]	EC50 [6, 14]	EC50 [7, 15]	ERR-HEK293 Follow-Up Viability EC50 ([7]; follow-up screen, viability)	activity in the ERR/PGC assay [3]	PGC/ERR-HEK293 Primary Viability EC50 [5]	activity in the ERR assay [6]	ERR-HEK293 Primary Viability EC50 [7, 16]	EC50 [7, 17]	further results
COC(=O)N(OC)c1ccccc1COc1ccn(-c2ccc(Cl)cc2)n1 [Pyraclostrobin]	−80.0 ± 5.67%	−90.7 ± 11.9%	0.539 ± 0.76 µM	0.838 ± 0.771 µM	−42.1 ± 9.82%	−58.2 ± 4.17%	74.5 µM	Inactive	0.762 µM	0.239 ± 0.13 µM	40.9 µM	Inactive						Percent inhibition of mRNA gene expression, IDH3α ([2]; 1 µM): 5.06 ± 5.03%; Percent inhibition of mRNA gene expression, Cytochrome C ([8]; 1 µM): 11.0 ± 8.54%
CC(C)(C)c1ccc(CSc2cnn(C(C)(C)C)c(=O)c2Cl)cc1 [Pyridaben]	−94.1 ± 13.4%	−77.3 ± 4.10%	0.0434 ± 0.02 µM	0.00781 ± 0.00301 µM	−63.1 ± 29.7%	−57.6 ± 8.49%		Inactive	0.0245 ± 0.00942 µM	0.00592 ± 0.000815 µM		Inactive	antagonism	Inactive	potent antagonists	Inactive		Percent inhibition of mRNA gene expression, IDH3α ([2]; 15 nM): 14.6%
COc1ccc2cc3[n+](cc2c1OC)CCc1cc2c(cc1-3)OCO2 [Berberine]			8.93 ± 4.01 µM	6.13 ± 1.71 µM			17.3 µM		3.29 ± 2.27 µM	3.16 ± 0.713 µM	12.8 µM		antagonism		potent antagonists		12.7 µM	Percent inhibition of mRNA gene expression, IDH3α ([2]; 20 µM): 15.1 ± 2.97%; PGC/ERR-HEK293 Follow-Up Efficacy ([3]; follow-up screen, negative = antagonism, positive = agonism): −87.4 ± 20.8%; PGC/ERR-HEK293 Primary Efficacy ([3]; primary qHTS, negative = antagonism, positive = agonism): −77.3 ± 14.6%; EC50 ([5]; HEK293, follow-up screen, read-out: PGC/ERR-HEK293 Follow-Up Viability EC50 (converted)): 17.3 µM; Percent inhibition of mRNA gene expression, COX8α ([9]; 20 µM): 5.15 ± 0.17%; ERR-HEK293 Follow-Up Efficacy ([6]; follow-up screen, relative to XCT790 = −100%): −92.0 ± 16.0%; ERR-HEK293 Primary Efficacy ([6]; primary qHTS, relative to XCT790 = −100%, DMSO = 0%): −88.4 ± 7.45%; Percent inhibition of mRNA gene expression, Cytochrome C ([8]; 20 µM): 46.2 ± 2.61%
CO/C=C(/C(=O)OC)c1ccccc1COc1cccc(C(F)(F)F)n1 [Picoxystrobin]	−86.7 ± 15.8%	−83.9 ± 10.6%	4.19 ± 2.97 µM	2.79 ± 2.4 µM	−43.6 ± 14.2%	−44.2 ± 4.37%		Inactive	3.42 ± 0.393 µM	0.807 ± 0.279 µM				Inactive		Inactive	32.1 µM	
CO/N=C(/C(=O)OC)c1ccccc1COc1ccccc1C [Kresoxim-methyl]	−102 ± 1.40%	−86.6 ± 21.1%	17.7 ± 6.04 µM	7.66 ± 6.87 µM	−61.1 ± 10.0%	−56.7 ± 8.51%		Inactive	8.31 ± 3.29 µM	5.65 ± 6.96 µM		Inactive		Inactive		Inactive		Percent inhibition of mRNA gene expression, IDH3α ([2]; 2 µM): 8.26 ± 19.3%; Percent inhibition of mRNA gene expression, COX8α ([9]; 2 µM): 9.70 ± 12.8%; Percent inhibition of mRNA gene expression, Cytochrome C ([8]; 2 µM): 9.31 ± 0.48%

— article PMC6429183, “Identification of Compounds That Inhibit Estrogen-Related Receptor Alpha Signaling Using High-Throughput Screening Assays” (Molecules, 2019)
